Measurements published in patent US11542263B2 (NeuroCycle Therapeutics, Inc., priority 2018, dated 2023).
Read-outs that look alike come from different tables or passages of the source.

Key:
[1] = Accelerated stability testing (HPLC assay and purity); type: physicochemical; conditions: for Assay (%): assay criterion 95%-105%
Protocol: The stability of Phosphate Polymorphic Form and Free Base Polymorphic Form A were evaluated under accelerated conditions.
Appropriately 2 mg of compounds were accurately weighed into a glass vial, then added diluents (ACN/water, 50/50) and sonicated for 2 minutes to dilute the target concentration of 0.2 mg/mL. The solution was equilibrated to room temperature and then the purity of the compounds was determined by HPLC.

[2] = Hygroscopicity by dynamic vapor sorption (DVS); type: physicochemical
Protocol: The hygroscopicity of Phosphate Polymorph Form A was measured by Dynamic vapor sorption (DVS). […] After DVS, XRPD confirmed that the crystalline form was retained (see FIG. 19).

[3] = Solubility in aqueous buffers and simulated fluids, 24 h, HPLC; type: physicochemical; conditions: for solubility at 24 h: 22.5 °C, thermodynamic from solid, read-out: Measured Conc. (solubility); for solubility at 24 h / Measured Conc. (solubility): ~24 h
Protocol: About 2 mg of test article was added to a 1.5 mL vials which contained ˜1.0 mL of one medium listed in Table 7 and Table 8, which was then sealed. The mixtures were stirred at ˜20-25° C. for ˜24 hours. After that, the mixture was filtered by 0.45 μm filter membrane and then the supernatant was analyzed by HPLC.

[4] = Intrinsic dissolution rate in SGF; type: physicochemical; conditions: 37° C., 100 rpm, linear scope within 2 to 120 min
Protocol: About 100 mg of Free Base Polymorphic Form A or Phosphate Polymorphic Form A was weighed into the intrinsic dissolution apparatus and the sample compressed for 1 minute with a compression force of ˜4 MPa to form a compacted pellet within the stainless-steel die. All loose powder was removed from the surface of the die. The intrinsic dissolution shaft was connected with the stainless-steel die and tightened so only one surface of the pellet was exposed (surface area=0.496 cm^2). The shaft in the spindle was adjusted to ensure the exposed surface of the compacted tablet was ˜3.8 cm from the bottom of the vessel when lowered. The temperature of chamber water was set at 37° C.±0.5° C., the shaft rotation at 100 rpm and the sampling time points at 2, 5, 10, 15, 30, 45, 60, 120 min. SGF was used as dissolution medium (900 mL). At each time point, solution samples were filtered, and the supernatant was analyzed by HPLC-UV.

Pharmacokinetics in rats = type: in vivo, Sprague-dawley rats; conditions: rat, mean
Protocol: To evaluate the pharmacokinetics (PK) of Phosphate Polymorphic Form A, suspensions or solutions were dosed by either oral gavage (0.5% methyl cellulose) or IV (60% PEG400/40% saline) in normal, healthy, male Sprague-dawley rats with serial blood collection focused on the first 48 hours of exposure. Rats were dosed with vehicle or test compounds at 1 mg/kg (IV) or 2 mg/kg (PO). Approximately 0.2 mL blood was collected at each time point. All blood samples were collected jugular vein puncture. All blood samples were transferred into plastic microcentrifuge tubes containing 5 μL of EDTA-K2 as anti-coagulant or pre-chilled commercial EDTA-K2 tubes and placed on wet ice until centrifugation. Harvested blood samples were centrifuged within 30 min of collection at 7,000 rpm for 10 minutes. The extracts were analyzed for compound concentration by LC/MS/MS. Data were analyzed with Phoenix WinNonlin 6.3 using the IV-Noncompartmental model 201 (IV bolus input) and PO-Noncompartmental model 200 (extravascular input) methods.

Canine pharmacokinetics = type: in vivo, Beagle dogs; conditions: male, beagle, plasma, dog, mean
Protocol: To evaluate the pharmacokinetics (PK) Phosphate Polymorphic Form A, suspensions or solutions were dosed by either oral gavage (0.5% methyl cellulose) or IV (60% PEG400/40% saline) in normal, healthy, male Beagle dogs with serial blood collection focused on the first 48 hours of exposure. Dogs were dosed with vehicle or test compounds at 1 mg/kg (IV) or 2 mg/kg (PO). Approximately 0.5 mL blood was collected at each time point. All blood samples were collected from a peripheral vein. Blood was collected into commercially available tubes (Jiangsu Kangjian medical supplies co., LTD) containing Potassium (K2) EDTA*2H2O and placed on wet ice until processed for plasma. Samples were centrifuged (3,000×g for 10 minutes at 2 to 8° C.) within one hour of collection. The extracts were analyzed for compound concentration by LC/MS/MS. Data were analyzed with Phoenix WinNonlin 6.3 using the IV-Noncompartmental model 201 (IV bolus input) and PO-Noncompartmental model 200 (extravascular input) methods.

[5] = male, Sprague-Dawley, plasma, IV 1 mg/kg
[6] = male, Sprague-Dawley, plasma, PO 2 mg/kg

Compound: CC(C)(O)c1cnn2c(-c3ccc(F)c(-c4c(F)cccc4C#N)c3)cnc2n1.O=P(O)(O)O [Phosphate Polymorphic Form A, 2′,6-difluoro-5′-[3-(1-hydroxy-1-methylethyl)-imidazo[1,2-b][1,2,4]triazin-7-yl]biphenyl-2-carbonitrile]
- Purity (%) ([1]; 40° C./75% RH (open), 1 week): 99.02%
- Assay (%) ([1]; 40° C./75% RH (open), 1 week): 97.12%
- Purity (%) ([1]; 80° C. (open), 1 week): 98.94%
- Assay (%) ([1]; 80° C. (open), 1 week): 95.99%
- Purity (%) ([1]; Initial): 98.91%
- Assay (%) ([1]; Initial): 104.60%
- Purity (%) ([1]; Light, ~50 h): 97.55%
- Assay (%) ([1]; Light, ~50 h): 95.25%
- reversible mass increase (hygroscopicity) [2]: about 1.08%
- solubility at 24 h ([3]; aqueous buffer, pH 3.0 citrate buffer (100 mM), initial pH 3.05, LOQ: 0.1 μg/mL): 0.16 µg/mL
- solubility at 24 h ([3]; pH 1.8, simulated gastric fluid, SGF, initial pH 1.80, ~20-25° C.): 3.85 µg/mL
- solubility at 24 h ([3]; simulated gastric fluid, pH 1.2 Hydrochloric Acid Buffer (50 mM), initial pH 1.17, ~20-25° C.): 22.9 µg/mL
- solubility at 24 h ([3]; FaSSIF, initial pH 6.51, ~20-25° C.): 7.14 µg/mL
- solubility at 24 h ([3]; FeSSIF, initial pH 5.00, ~20-25° C.): 50.7 µg/mL
- solubility at 24 h ([3]; Purified water, initial pH 7.02, ~20-25° C., target 2 mg/mL): 0.4 µg/mL
- pH value of supernatant ([3]; FaSSIF, initial pH 6.51): 6.09
- pH value of supernatant ([3]; FeSSIF, initial pH 5.00): 4.94
- pH value of supernatant ([3]; Purified water, initial pH 7.02): 2.62
- pH value of supernatant ([3]; SGF, initial pH 1.80): 1.67
- solubility compared with Free Base Polymorphic Form A ([3]; in SGF, FaSSIF and FeSSIF): higher solubility
- pH value of supernatant ([3]; pH 1.2 Hydrochloric Acid Buffer (50 mM), initial pH 1.17): 0.99
- pH value of supernatant ([3]; pH 3.0 citrate buffer (100 mM), initial pH 3.05): 2.96
- pH value of supernatant ([3]; pH 4.5 citrate buffer (100 mM), initial pH 4.44): 4.41
- Measured Conc. (solubility) ([3]; pH 4.5 citrate buffer (100 mM), initial pH 4.44, LOQ: 0.1 μg/mL): <LOQ
- pH value of supernatant ([3]; pH 7.4 PBS (50 mM), initial pH 7.40): 7.09
- Measured Conc. (solubility) ([3]; pH 7.4 PBS (50 mM), initial pH 7.40, LOQ: 0.1 μg/mL): <LOQ
- pH value of supernatant ([3]; pH 9.0 USP Buffer (50 mM), initial pH 8.94): 8.46
- Measured Conc. (solubility) ([3]; pH 9.0 USP Buffer (50 mM), initial pH 8.94, LOQ: 0.1 μg/mL): <LOQ
- intrinsic dissolution rate [4]: 0.184 mg cm^−2 min^−1
- AUC(0-inf) (Pharmacokinetics in rats; [5]): 12100 ng·h/mL
- AUC(0-t) (Pharmacokinetics in rats; [5]): 11300 ng·h/mL
- clearance (Pharmacokinetics in rats; [5]): 1.41 mL/min/kg
- half-life (Pharmacokinetics in rats; [5]): 12.4 h
- Vd (Pharmacokinetics in rats; male, Sprague-Dawley, plasma, IV 1 mg/kg, read-out: Vdss): 1.49 L/kg
- AUC(0-inf) (Pharmacokinetics in rats; [6]): 16000 ng·h/mL
- AUC(0-t) (Pharmacokinetics in rats; [6]): 15000 ng·h/mL
- Cmax (Pharmacokinetics in rats; [6]): 794 ng/mL
- Tmax (Pharmacokinetics in rats; [6]): 7 h
- bioavailability (Pharmacokinetics in rats; [6]): 66.1%
- half-life (Pharmacokinetics in rats; [6]): 11.1 h
- AUCExtra (Pharmacokinetics in rats; PO 2 mg/kg): 6.25%
- AUC(0-inf) (Canine pharmacokinetics; IV 1 mg/kg): 9170 ng·h/mL
- AUC(0-t) (Canine pharmacokinetics; IV 1 mg/kg): 7850 ng·h/mL
- clearance (Canine pharmacokinetics; IV 1 mg/kg): 2.52 mL/min/kg
- half-life (Canine pharmacokinetics; IV 1 mg/kg): 12.8 h
- Vd (Canine pharmacokinetics; IV 1 mg/kg, read-out: Vdss): 1.93 L/kg
- AUC(0-inf) (Canine pharmacokinetics; PO 2 mg/kg): 13900 ng·h/mL
- AUC(0-t) (Canine pharmacokinetics; PO 2 mg/kg): 11700 ng·h/mL
- Cmax (Canine pharmacokinetics; PO 2 mg/kg): 649 ng/mL
- Tmax (Canine pharmacokinetics; PO 2 mg/kg): 3.33 h
- bioavailability (Canine pharmacokinetics; PO 2 mg/kg): 74.7%
- half-life (Canine pharmacokinetics; PO 2 mg/kg): 12.2 h
